Experiments:
[1] = system: 4T1.2 mouse breast cancer cell line; test: In vitro cytotoxicity, 4T1.2; assay type: cell-based; conditions: 4T1.2 cells
[2] = system: HCT-116 human colon carcinoma cell line; test: In vitro cytotoxicity, HCT-116; assay type: cell-based; conditions: HCT-116 cells
Text: Several cancer cell lines were included in the cytotoxicity studies including murine breast cancer cells 4T1.2, human colon carcinoma cell line HCT-116, and two human prostate cancer cell lines PC-3 and DU145. […] A similar result was obtained in human colon cancer cells, HCT-116 as illustrated in FIG. 3B. […] Without limitation to any mechanism, it is likely that FTS is much more readily released from PEG5KFTS2(L) by esterases following intracellular delivery.
Incorporation of an additional disulfide linkage into PEG5K-FTS2(L) led to further improvement in cytotoxicity. […] Without limitation to any mechanism, this observation may, for example, be a result of enhanced intracellular delivery of FTS via PEG5K-S—S-FTS2(L).
The cytotoxicity of drug-free PEG5K-Fmoc-FTS2 and PEG5K-FTS2 micelles was examined in 4T1.2 and HCT-116 tumor cells and compared to free FTS (see FIGS. 12A and 12B, respectively). […] Without limitation to any mechanism, it is likely that the cytotoxicity of PEG-FTS comes from the released FTS following intracellular delivery.
FIGS. 13A-C show the cytotoxicity of TAXOL and PTX formulated in PEG5K-Fmoc-FTS2 micelles in several cancer cell lines.
See Zhang, X.; et al., PEG-farnesylthiosalicylate conjugate as a nanomicellar carrier for delivery of paclitaxel. Bioconjug. Chem., 24, 464-72 (2013). The cytotoxicity of free PEG5K-FTS2, PEG5K-Fmoc-FTS2 and FTS was also examined.

[3] = Text: Changes in body weight and mouse survival were monitored daily for two weeks. The MTD was defined as the maximal dose that causes neither greater than 15% of body weight loss nor mouse mortality within two weeks after administration. See Lu, J.; Huang, Y.; Zhao, W.; Marquez, R. T.; Meng, X.; Li, J.; Gao, X.; Venkataramanan, R.; Wang, Z.; Li, S., PEG-derivatized embelin as a nanomicellar carrier for delivery of paclitaxel to breast and prostate cancers. Biomaterials, 34, 1591-600 (2013).
[4] = mouse, in vivo, iv
Description: The blood samples were collected in heparinized tubes at different time points (3 min, 8 min, 15 min, 30 min, 1 h, 2 h, 4 h, 8 h, and 12 h) post-injection. The blood was centrifuged (2,500 rpm, 10 min) and plasma was collected for the analysis. […] Non-compartmental pharmacokinetic analysis was done by WinNonlin. […] At day 1 post-injection, tumor tissues and major organs were collected from the mice. The tissues were weighed and homogenized using Homogenizer PowerGen 500 (Fisher Scientific). […] The solutions were centrifuged (2,500 rpm, 10 min) and the supernatant was used for HPLC measurement.

[5] = system: PC-3 human prostate cancer cell line; test: In vitro cytotoxicity, PC-3; assay type: cell-based; conditions: PC-3 cells
Text: FIG. 9B illustrates cytotoxicity of FTS and FTS-amide in a PC-3 human prostate cancer cell line.
As described above, FTS and derivatives thereof can be used in the carrier agents hereof. In a number of embodiments (for example, for drug delivery), biologically active derivatives of FTS are used. […] Similar results were obtained in our in vitro cytotoxicity study with HCT-116 and PC-3 cancer cell lines (see FIGS. 9A and 9B).

[6] = system: human prostate cancer xenograft model (PC-3); test: NIRF optical imaging biodistribution; conditions: PC-3 xenograft, i.v.
Description: Biodistribution and tumor-targeting efficiency of PEG5K-Fmoc-FTS2 micelles were tested in a human prostate cancer xenograft model (PC-3). DiD, a hydrophobic near infrared fluorescence (NIRF) dye with high penetration, low tissue absorption and scattering was loaded into the PEG5K-Fmoc-FTS2 micelles for tissue imaging. […] After last imaging at 96 h post-injection, tumors and major organs were excised for ex vivo imaging.
At indicated times (0.5 h, 6 h, 24 h, 48 h, 72 h and 96 h), the mice were scanned using a Carestream Molecular Imaging System, In vivo Multispectral FX PRO, with the excitation at 630 nm and the emission at 700 nm using a 30 s exposure time. The mice were anesthetized by isoflurane inhalation before each imaging. After 96 h, the mice were euthanized by CO2 overdose. The tumor and major organs were excised for ex vivo imaging.

CC(C)=CCC/C(C)=C/CC/C(C)=C/CSc1ccccc1C(=O)O [FTS, S-trans, trans-farnesylthiosalicylic acid]
cytotoxicity (tumor cell growth inhibition) [1]: inhibited the tumor cell growth in a concentration-dependent manner | cytotoxicity (tumor cell growth inhibition) [2]: inhibited the tumor cell growth in a concentration-dependent manner

COc1cccc2c1C(=O)c1c(O)c3c(c(O)c1C2=O)C[C@@](O)(C(=O)CO)C[C@@H]3O[C@H]1C[C@H](N)[C@H](O)[C@H](C)O1 [DOX, doxorubicin]
decrease in the body weight ([3]; 15 mg DOX/kg): > 15% | mortality ([3]; 15 mg DOX/kg): death of all treated mice | tolerability ([3]; dose of 10 mg/kg (DOX)): well tolerated | Vd [4]: 7.34 L/kg

CC(C)=CCC/C(C)=C/CC/C(C)=C/CSc1ccccc1C(N)=O [FTS-amide, S-trans, trans-farnesylthiosalicylic acid amide]
cytotoxicity (tumor cell growth inhibition) [2]: more effective than the parent compound in inhibiting the tumor cell growth | cytotoxicity (tumor cell growth inhibition) [5]: more effective than the parent compound in inhibiting the tumor cell growth

CCCCCCCCCCCCCCCCCCN1C(=CC=CC=CC2=[N+](CCCCCCCCCCCCCCCCCC)c3ccccc3C2(C)C)C(C)(C)c2ccccc21.[O-][Cl+3]([O-])([O-])[O-] [free DiD, 1,1′-dioctadecyl-3,3,3′,3′-tetramethylindodicarbocyanine perchlorate]
tumor accumulation (NIRF imaging) [6]: No obvious tumor accumulation

Reference: patent US9855341B2, “Formulations and carrier systems including farnesylthiosalycylic moities” (University of Pittsburgh—Of the Commonwealth System of …, priority 2014, dated 2018)
